From the CheMixHub viscosity set
± gives the uncertainty stated by the source.

Assay: xn = mol fraction of the nth substance listed

C1CCCCC1 + c1ccccc1
viscosity (293.15 K, 101 kPa, x2 = 0.094): 0.893 ± 0.017 mPa·s | viscosity (293.15 K, 101 kPa, x2 = 0.251): 0.762 ± 0.015 mPa·s | viscosity (293.15 K, 101 kPa, x2 = 0.418): 0.684 ± 0.014 mPa·s | viscosity (293.15 K, 101 kPa, x2 = 0.582): 0.649 ± 0.013 mPa·s | viscosity (293.15 K, 101 kPa, x2 = 0.736): 0.628 ± 0.013 mPa·s | viscosity (293.15 K, 101 kPa, x2 = 0.891): 0.636 ± 0.013 mPa·s | viscosity (293.15 K, 101.32 kPa, x1 = 0.069): 0.634 ± 0.017 mPa·s | viscosity (293.15 K, 101.33 kPa, x1 = 0.4): 0.6789 ± 0.0079 mPa·s | viscosity (293.65 K, 101.33 kPa, x1 = 0.1): 0.6528 ± 0.0076 mPa·s | viscosity (293.85 K, 101.33 kPa, x1 = 0.3): 0.6581 ± 0.0076 mPa·s | viscosity (294.35 K, 101.33 kPa, x1 = 0.7): 0.7579 ± 0.0089 mPa·s | viscosity (294.55 K, 101.33 kPa, x1 = 0.85): 0.8416 ± 0.0099 mPa·s | viscosity (294.85 K, 101.33 kPa, x1 = 0.6): 0.7104 ± 0.0083 mPa·s | viscosity (296.05 K, 101.33 kPa, x1 = 0.2): 0.631 ± 0.0074 mPa·s | viscosity (298 K, 101 kPa, x1 = 0.077): 0.654 ± 0.018 mPa·s | viscosity (298 K, 101 kPa, x1 = 0.1226): 0.654 ± 0.018 mPa·s | viscosity (298 K, 101 kPa, x1 = 0.1659): 0.657 ± 0.018 mPa·s | viscosity (298 K, 101 kPa, x1 = 0.1692): 0.66 ± 0.018 mPa·s | viscosity (298 K, 101 kPa, x1 = 0.2368): 0.665 ± 0.018 mPa·s | viscosity (298 K, 101 kPa, x1 = 0.2613): 0.669 ± 0.018 mPa·s | viscosity (298 K, 101 kPa, x1 = 0.2942): 0.678 ± 0.018 mPa·s | viscosity (298 K, 101 kPa, x1 = 0.2951): 0.674 ± 0.018 mPa·s | viscosity (298 K, 101 kPa, x1 = 0.6686): 0.787 ± 0.018 mPa·s | viscosity (298.1 K, 101 kPa, x1 = 0.2): 0.581 ± 0.046 mPa·s | viscosity (298.1 K, 101 kPa, x1 = 0.4): 0.588 ± 0.046 mPa·s | viscosity (298.1 K, 101 kPa, x1 = 0.5): 0.606 ± 0.047 mPa·s | viscosity (298.1 K, 101 kPa, x1 = 0.6): 0.629 ± 0.049 mPa·s | viscosity (298.1 K, 101 kPa, x1 = 0.8): 0.702 ± 0.053 mPa·s | viscosity (298.15 K, 100 kPa, x2 = 0.2504): 0.7321 ± 0.02 mPa·s | viscosity (298.15 K, 100 kPa, x2 = 0.4997): 0.6299 ± 0.017 mPa·s | viscosity (298.15 K, 100 kPa, x2 = 0.7497): 0.575 ± 0.016 mPa·s | viscosity (298.15 K, 101 kPa, x1 = 0.0407): 0.5938 ± 0.016 mPa·s | viscosity (298.15 K, 101 kPa, x1 = 0.0977): 0.5871 ± 0.016 mPa·s | viscosity (298.15 K, 101 kPa, x1 = 0.1489): 0.5839 ± 0.015 mPa·s | viscosity (298.15 K, 101 kPa, x1 = 0.1991): 0.581 ± 0.015 mPa·s | viscosity (298.15 K, 101 kPa, x1 = 0.2609): 0.5691 ± 0.0077 mPa·s | viscosity (298.15 K, 101 kPa, x1 = 0.3011): 0.5852 ± 0.015 mPa·s | viscosity (298.15 K, 101 kPa, x1 = 0.3095): 0.574 ± 0.0077 mPa·s | viscosity (298.15 K, 101 kPa, x1 = 0.3586): 0.5843 ± 0.0078 mPa·s | viscosity (298.15 K, 101 kPa, x1 = 0.3991): 0.5953 ± 0.016 mPa·s | viscosity (298.15 K, 101 kPa, x1 = 0.4089): 0.5884 ± 0.0079 mPa·s | viscosity (298.15 K, 101 kPa, x1 = 0.4513): 0.6073 ± 0.0081 mPa·s | viscosity (298.15 K, 101 kPa, x1 = 0.4887): 0.5861 ± 0.0079 mPa·s | viscosity (298.15 K, 101 kPa, x1 = 0.4987): 0.6127 ± 0.016 mPa·s | viscosity (298.15 K, 101 kPa, x1 = 0.5798): 0.6263 ± 0.0084 mPa·s | viscosity (298.15 K, 101 kPa, x1 = 0.5965): 0.6256 ± 0.0084 mPa·s | viscosity (298.15 K, 101 kPa, x1 = 0.6017): 0.6403 ± 0.017 mPa·s | viscosity (298.15 K, 101 kPa, x1 = 0.6481): 0.6489 ± 0.0087 mPa·s | viscosity (298.15 K, 101 kPa, x1 = 0.6986): 0.6783 ± 0.018 mPa·s | viscosity (298.15 K, 101 kPa, x1 = 0.7128): 0.6954 ± 0.0092 mPa·s | viscosity (298.15 K, 101 kPa, x1 = 0.8006): 0.7301 ± 0.019 mPa·s | viscosity (298.15 K, 101 kPa, x1 = 0.8959): 0.7929 ± 0.021 mPa·s | viscosity (298.15 K, 101 kPa, x1 = 0.9313): 0.8219 ± 0.022 mPa·s | viscosity (298.15 K, 101 kPa, x1 = 0.9638): 0.8484 ± 0.022 mPa·s | viscosity (298.15 K, 101 kPa, x2 = 0.0136): 0.8732 ± 0.023 mPa·s | viscosity (298.15 K, 101 kPa, x2 = 0.1): 0.7978 ± 0.008 mPa·s | viscosity (298.15 K, 101 kPa, x2 = 0.1043): 0.8022 ± 0.0084 mPa·s | viscosity (298.15 K, 101 kPa, x2 = 0.2): 0.734 ± 0.0093 mPa·s | viscosity (298.15 K, 101 kPa, x2 = 0.2011): 0.7423 ± 0.0079 mPa·s | viscosity (298.15 K, 101 kPa, x2 = 0.203): 0.7292 ± 0.0073 mPa·s | viscosity (298.15 K, 101 kPa, x2 = 0.2438): 0.7115 ± 0.018 mPa·s | viscosity (298.15 K, 101 kPa, x2 = 0.3015): 0.6869 ± 0.0076 mPa·s | viscosity (298.15 K, 101 kPa, x2 = 0.31): 0.6772 ± 0.0068 mPa·s | viscosity (298.15 K, 101 kPa, x2 = 0.4): 0.641 ± 0.0075 mPa·s | viscosity (298.15 K, 101 kPa, x2 = 0.4038): 0.6514 ± 0.0074 mPa·s | viscosity (298.15 K, 101 kPa, x2 = 0.441): 0.6283 ± 0.0064 mPa·s | viscosity (298.15 K, 101 kPa, x2 = 0.5005): 0.6313 ± 0.0072 mPa·s | viscosity (298.15 K, 101 kPa, x2 = 0.549): 0.6011 ± 0.016 mPa·s | viscosity (298.15 K, 101 kPa, x2 = 0.6): 0.593 ± 0.0063 mPa·s | viscosity (298.15 K, 101 kPa, x2 = 0.6032): 0.6107 ± 0.0071 mPa·s | viscosity (298.15 K, 101 kPa, x2 = 0.611): 0.595 ± 0.0061 mPa·s | viscosity (298.15 K, 101 kPa, x2 = 0.7006): 0.5985 ± 0.0071 mPa·s | viscosity (298.15 K, 101 kPa, x2 = 0.733): 0.5877 ± 0.006 mPa·s | viscosity (298.15 K, 101 kPa, x2 = 0.7848): 0.574 ± 0.015 mPa·s | viscosity (298.15 K, 101 kPa, x2 = 0.7996): 0.6 ± 0.0071 mPa·s | viscosity (298.15 K, 101 kPa, x2 = 0.8): 0.587 ± 0.0059 mPa·s | viscosity (298.15 K, 101 kPa, x2 = 0.883): 0.5923 ± 0.0061 mPa·s | viscosity (298.15 K, 101 kPa, x2 = 0.9011): 0.609 ± 0.0071 mPa·s | viscosity (298.15 K, 101.33 kPa, x1 = 0.0984): 0.582 ± 0.008 mPa·s | viscosity (298.15 K, 101.33 kPa, x1 = 0.1986): 0.576 ± 0.008 mPa·s | viscosity (298.15 K, 101.33 kPa, x1 = 0.3009): 0.579 ± 0.008 mPa·s | viscosity (298.15 K, 101.33 kPa, x1 = 0.4008): 0.589 ± 0.008 mPa·s | viscosity (298.15 K, 101.33 kPa, x1 = 0.4989): 0.609 ± 0.008 mPa·s | viscosity (298.15 K, 101.33 kPa, x1 = 0.552): 0.623 ± 0.008 mPa·s | viscosity (298.15 K, 101.33 kPa, x1 = 0.6007): 0.639 ± 0.009 mPa·s | viscosity (298.15 K, 101.33 kPa, x1 = 0.6478): 0.653 ± 0.009 mPa·s | viscosity (298.15 K, 101.33 kPa, x1 = 0.7475): 0.699 ± 0.009 mPa·s | viscosity (298.15 K, 101.33 kPa, x1 = 0.8011): 0.733 ± 0.01 mPa·s | viscosity (298.15 K, 101.33 kPa, x1 = 0.9022): 0.803 ± 0.01 mPa·s | viscosity (298.15 K, 101.33 kPa, x2 = 0.1282): 0.7622 ± 0.02 mPa·s
